Assay results: ChEMBL document CHEMBL1201862, “PubChem BioAssay data set” (2004)
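Step 1: Grow cells in 96-well plates. Step 2: Expose to compound for 48 hours at 5 concentrations. Step 3: Interpolate endpoints linearly; if unreached, use highest concentration. GI50: concentration for 50% inhibition of growth.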 Calls of active or inactive are those of the source. Cut-off read from the data, not from the text of the source: active = GI50 up to about 1.1 µM and inactive = higher.

Tests used:
Experiment in all cases: NCI anticancer screen, dose series, 48 h
SF-539 = tested on: SF-539
HCT-15 = tested on: HCT-15
OVCAR-5 = tested on: OVCAR-5
MCF7 = tested on: MCF7
M14 = tested on: M14
UO-31 = tested on: UO-31
A549 = tested on: A549
CAKI-1 = tested on: CAKI-1
SNB-75 = tested on: SNB-75
EKVX = tested on: EKVX
NCI/ADR-RES = tested on: NCI/ADR-RES
MDA-MB-231 = tested on: MDA-MB-231
SF-295 = tested on: SF-295
SNB-19 = tested on: SNB-19
SF-268 = tested on: SF-268
UACC-62 = tested on: UACC-62
A498 = tested on: A498
HCC 2998 = tested on: HCC 2998
SK-MEL-2 = tested on: SK-MEL-2
KM12 = tested on: KM12

O=C(c1ccco1)N(C(=O)N1CCN(c2ccccc2)CC1)S(=O)(=O)c1ccccc1
GI50 (SF-539): 19.1 µM (inactive) | GI50 (HCT-15): 33.4 µM | GI50 (OVCAR-5): 41.6 µM (inactive) | GI50 (MCF7): 29.4 µM (inactive) | GI50 (M14): 23 µM (inactive) | GI50 (UO-31): 21.9 µM (inactive) | GI50 (A549): 34.4 µM (inactive) | GI50 (CAKI-1): 22.8 µM (inactive) | GI50 (SNB-75): 24.5 µM (inactive) | GI50 (EKVX): 22.4 µM (inactive) | GI50 (NCI/ADR-RES): 23.2 µM (inactive) | GI50 (MDA-MB-231): 36.9 µM (inactive) | GI50 (SF-295): 43.6 µM (inactive) | GI50 (SNB-19): 27.7 µM (inactive) | GI50 (SF-268): 37.7 µM (inactive) | GI50 (UACC-62): 27.4 µM (inactive) | GI50 (A498): 37.5 µM (inactive) | GI50 (HCC 2998): 48.4 µM (inactive) | GI50 (SK-MEL-2): 18.5 µM (inactive) | GI50 (KM12): 37.8 µM (inactive)

C/C(CC1SCCCS1)=C(/C)CC1SCCCS1
GI50 (SF-539): > 100 µM (inactive) | GI50 (HCT-15): > 100 µM | GI50 (OVCAR-5): > 100 µM (inactive) | GI50 (MCF7): > 100 µM (inactive) | GI50 (M14): > 100 µM (inactive) | GI50 (UO-31): > 100 µM (inactive) | GI50 (A549): > 100 µM (inactive) | GI50 (CAKI-1): > 100 µM (inactive) | GI50 (SNB-75): > 100 µM (inactive) | GI50 (EKVX): > 100 µM (inactive) | GI50 (NCI/ADR-RES): > 100 µM (inactive) | GI50 (MDA-MB-231): > 100 µM (inactive) | GI50 (SF-295): > 100 µM (inactive) | GI50 (SNB-19): > 100 µM (inactive) | GI50 (SF-268): > 100 µM (inactive) | GI50 (UACC-62): > 100 µM (inactive) | GI50 (A498): > 100 µM (inactive) | GI50 (HCC 2998): > 100 µM (inactive) | GI50 (SK-MEL-2): > 100 µM (inactive) | GI50 (KM12): > 100 µM (inactive)

O=C(O)c1nn[nH]c1S
GI50 (SF-539): 30.6 µM (inactive) | GI50 (HCT-15): > 100 µM | GI50 (OVCAR-5): > 100 µM (inactive) | GI50 (MCF7): > 100 µM (inactive) | GI50 (M14): > 100 µM (inactive) | GI50 (UO-31): > 100 µM (inactive) | GI50 (A549): > 100 µM (inactive) | GI50 (CAKI-1): > 100 µM (inactive) | GI50 (SNB-75): > 100 µM (inactive) | GI50 (EKVX): > 100 µM (inactive) | GI50 (NCI/ADR-RES): > 100 µM (inactive) | GI50 (MDA-MB-231): > 100 µM (inactive) | GI50 (SF-295): > 100 µM (inactive) | GI50 (SNB-19): > 100 µM (inactive) | GI50 (SF-268): > 100 µM (inactive) | GI50 (UACC-62): > 100 µM (inactive) | GI50 (A498): > 100 µM (inactive) | GI50 (HCC 2998): > 100 µM (inactive) | GI50 (SK-MEL-2): > 100 µM (inactive) | GI50 (KM12): > 100 µM (inactive)

COC(=O)CCC(=O)NC1=C(Nc2ccccc2)C(=O)c2ccccc2C1=O
GI50 (SF-539): 13 µM (inactive) | GI50 (HCT-15): 11.2 µM | GI50 (OVCAR-5): 9.27 µM (inactive) | GI50 (MCF7): 3.89 µM (inactive) | GI50 (M14): 3.58 µM (inactive) | GI50 (UO-31): 17.9 µM (inactive) | GI50 (A549): 18.8 µM (inactive) | GI50 (CAKI-1): 14.4 µM (inactive) | GI50 (SNB-75): 18.3 µM (inactive) | GI50 (EKVX): 16.6 µM (inactive) | GI50 (NCI/ADR-RES): 14.8 µM (inactive) | GI50 (MDA-MB-231): 9.66 µM (inactive) | GI50 (SF-295): 15.4 µM (inactive) | GI50 (SNB-19): 17.2 µM (inactive) | GI50 (SF-268): 13.2 µM (inactive) | GI50 (UACC-62): 3.67 µM (inactive) | GI50 (A498): 15 µM (inactive) | GI50 (HCC 2998): 22.9 µM (inactive) | GI50 (SK-MEL-2): 5.57 µM (inactive) | GI50 (KM12): 15.7 µM (inactive)

CC(C)(C)C(=O)OCC1CCC[N+]2(C)CCCCC12 (stereo not given)
GI50 (SF-539): > 100 µM (inactive) | GI50 (HCT-15): > 100 µM | GI50 (OVCAR-5): > 100 µM (inactive) | GI50 (MCF7): > 100 µM (inactive) | GI50 (M14): > 100 µM (inactive) | GI50 (UO-31): > 100 µM (inactive) | GI50 (A549): > 100 µM (inactive) | GI50 (CAKI-1): > 100 µM (inactive) | GI50 (SNB-75): > 100 µM (inactive) | GI50 (EKVX): > 100 µM (inactive) | GI50 (NCI/ADR-RES): > 100 µM (inactive) | GI50 (MDA-MB-231): > 100 µM (inactive) | GI50 (SF-295): > 100 µM (inactive) | GI50 (SNB-19): > 100 µM (inactive) | GI50 (SF-268): > 100 µM (inactive) | GI50 (UACC-62): > 100 µM (inactive) | GI50 (A498): > 100 µM (inactive) | GI50 (HCC 2998): > 100 µM (inactive) | GI50 (SK-MEL-2): > 100 µM (inactive) | GI50 (KM12): > 100 µM (inactive)

CCC1(CC)CC(=NNS(=O)(=O)c2ccc(C)cc2)C1
GI50 (SF-539): > 100 µM (inactive) | GI50 (HCT-15): > 100 µM | GI50 (OVCAR-5): > 100 µM (inactive) | GI50 (MCF7): > 100 µM (inactive) | GI50 (M14): > 100 µM (inactive) | GI50 (UO-31): > 100 µM (inactive) | GI50 (A549): > 100 µM (inactive) | GI50 (CAKI-1): > 100 µM (inactive) | GI50 (SNB-75): > 100 µM (inactive) | GI50 (EKVX): > 100 µM (inactive) | GI50 (NCI/ADR-RES): > 100 µM (inactive) | GI50 (MDA-MB-231): > 100 µM (inactive) | GI50 (SF-295): > 100 µM (inactive) | GI50 (SNB-19): > 100 µM (inactive) | GI50 (SF-268): > 100 µM (inactive) | GI50 (UACC-62): > 100 µM (inactive) | GI50 (A498): > 100 µM (inactive) | GI50 (HCC 2998): > 100 µM (inactive) | GI50 (SK-MEL-2): > 100 µM (inactive) | GI50 (KM12): > 100 µM (inactive)

O=c1c2nc(-c3ccccc3)oc2n(-c2ccccc2)c(=O)n1-c1ccccc1
GI50 (SF-539): 20.2 µM (inactive) | GI50 (HCT-15): > 46.5 µM | GI50 (OVCAR-5): > 46.5 µM (inactive) | GI50 (MCF7): 45.7 µM (inactive) | GI50 (M14): > 46.5 µM (inactive) | GI50 (UO-31): 22 µM (inactive) | GI50 (A549): 37.6 µM (inactive) | GI50 (CAKI-1): 8.18 µM (inactive) | GI50 (SNB-75): 18.1 µM (inactive) | GI50 (EKVX): 28.4 µM (inactive) | GI50 (NCI/ADR-RES): 19.1 µM (inactive) | GI50 (MDA-MB-231): 29.3 µM (inactive) | GI50 (SF-295): 19.1 µM (inactive) | GI50 (SNB-19): 20.7 µM (inactive) | GI50 (SF-268): 20.7 µM (inactive) | GI50 (UACC-62): 31.1 µM (inactive) | GI50 (A498): 25.8 µM (inactive) | GI50 (HCC 2998): > 46.5 µM (inactive) | GI50 (SK-MEL-2): > 46.5 µM (inactive) | GI50 (KM12): 33.2 µM (inactive)
